The text below walks through data of patent publication US4073908A, “8-Amino-theophylline derivatives and therapeutic applications thereof” (Laboratoire le Brun S.A., priority 1975, dated 1978).

Holding throughout (format): in vivo
One data set is described as follows: Acute toxicity in mice. As to conditions: mouse, in vivo, single administration. The source says: (§1) Acute toxicity in mice by the sub-cutaneous and oral routes and in rats by the oral route was investigated by determination of the death rate following a single administration of increasing dosages.
(§2) Symbol > means that the LD50 is not attained at the dosage indicated.

The next data set is described as follows: Acute toxicity in rats. As to conditions: rat, in vivo, po, single administration.
Excerpt: as §1, §2

Data set [1] relates to aggressiveness subsequent to electric shocks in mice. Put plainly: Anti-aggressive: aggressiveness subsequent to electric shocks, mice. As to conditions: Mus musculus, oral, read-out: Oral AD50, electric shock in mice. The method, then: (§3) a. aggressiveness subsequent to electric shocks in mice and rats,
(§4) In all cases, the AD50 values were determined by the oral route.

The test system of data set [2] is aggressiveness subsequent to apomorphine injection in rats. Nature of the data set: Anti-aggressive: aggressiveness subsequent to apomorphine injection, rats. As to conditions: Rattus norvegicus, oral, apomorphine injection 1 mg/kg, read-out: Oral AD50, apomorphine, in rats. The protocol: b. aggressiveness subsequent to apomorphine injection (1 mg/kg, in vivo) in rats,
as §4

Data set [3] has as its system aggressiveness subsequent to extended isolation in mice. Nature of the data set: Anti-aggressive: aggressiveness subsequent to extended isolation, mice. Particulars: Mus musculus, oral, read-out: Oral AD50, isolated mice. The method, then: c. aggressiveness subsequent to extended isolation, in mice,
as §4

In data set [4] the test system is aggressiveness subsequent to electric shocks in rats. Nature of the data set: Anti-aggressive: aggressiveness subsequent to electric shocks, rats. Particulars: Rattus norvegicus, oral, read-out: Oral AD50, electric shock in rats. The protocol:
as §3, §4

Data set [5] deals with carrage enin-induced edema in rats. Put plainly: Anti-inflammatory: carrageenin-induced edema in rats. As to conditions: oral route. The method, then:
The technique used was that of the carrage enin-induced edema in rats (oral route). The dosage which inhibits this edema by a factor of 50% was evaluated by interpolation.

The subject of data set [6] is cough induced by electric stimulation of the laryngeal nerve in cats. Put plainly: Anti-tussive: cough induced by electric stimulation of the laryngeal nerve. The source says:
6. Anti-tussive activity against cough induced by electric stimulation of the laryngeal nerve in cats.

Data set [7] concerns bronchospasm induced by histamine injection in guinea-pigs. Nature of the data set: Anti-histaminic: bronchospasm induced by histamine injection in guinea-pigs. As to conditions: Cavia porcellus, oral, read-out: oral AD50, anti-histaminic activity. The method, then:
This activity was determined according to the technique of the bronchospasm induced by histamine injection in guinea-pigs.

The test system of a further data set is mice. Put plainly: Acute toxicity in mice. Particulars: single administration.
Excerpt: as §1, §2

A further data set concerns rats. Put plainly: Acute toxicity in rats. Particulars: single administration.
Excerpt: as §1, §2

The mark [8] stands for this setting: po, read-out: LD50, oral route, mice.
Setting [9] is: sc, read-out: LD50, s.c. route, mice.

Consider `Cc1cccc(N2CCN(CCN3CCn4c3nc3c4c(=O)n(C)c(=O)n3C)CC2)c1` [Compound 1], for which the figures for the LD50 in the data set “Acute toxicity in mice” (setting [8]), in “Acute toxicity in mice” (setting [9]) and in the data set “Acute toxicity in rats” were over 300 mg/kg, over 300 mg/kg and over 100 mg/kg, respectively.
For `Cc1ccc(N2CCN(CCN3CCn4c3nc3c4c(=O)n(C)c(=O)n3C)CC2)cc1C` [Compound 2], the LD50 (as a rule, the dose expected to kill half of the subjects tested) is over 300 mg/kg in the data set “Acute toxicity in mice” (setting [8]), over 300 mg/kg in the data set “Acute toxicity in mice” (setting [9]) and over 100 mg/kg in the data set “Acute toxicity in rats”.
For the molecule `COc1cccc(N2CCN(CCN3CCn4c3nc3c4c(=O)n(C)c(=O)n3C)CC2)c1` [Compound 3], the ED50 came to 30 mg/kg in data set [1], 180 mg/kg in data set [2], 25 mg/kg in data set [3] and 100 mg/kg in data set [4]. The figures for the LD50 in “Acute toxicity in mice” (setting [8]), in “Acute toxicity in mice” (setting [9]) and in the data set “Acute toxicity in rats” were over 300 mg/kg, over 300 mg/kg and over 100 mg/kg, respectively.
`COc1ccc(N2CCN(CCN3CCn4c3nc3c4c(=O)n(C)c(=O)n3C)CC2)cc1` [Compound 4]: the values for the LD50 in the data set “Acute toxicity in mice” (setting [8]), in the data set “Acute toxicity in mice” (setting [9]) and in “Acute toxicity in rats” were over 300 mg/kg, over 300 mg/kg and over 100 mg/kg, respectively.
In the case of `Cn1c(=O)c2c(nc3n2CCN3CCN2CCN(c3cccc(C(F)(F)F)c3)CC2)n(C)c1=O` [Compound 5], the values for the 50% lethal dose (LD50) in the data set “Acute toxicity in mice” (setting [8]), in “Acute toxicity in mice” (setting [9]) and in “Acute toxicity in rats” were over 300 mg/kg, over 300 mg/kg and over 100 mg/kg, respectively.
On to `Cn1c(=O)c2c(nc3n2CCN3CCN2CCN(c3cccc(F)c3)CC2)n(C)c1=O` [Compound 6], for which the figures for the LD50 in the data set “Acute toxicity in mice” (setting [8]), in “Acute toxicity in mice” (setting [9]) and in the data set “Acute toxicity in rats” were over 300 mg/kg, over 300 mg/kg and over 100 mg/kg, respectively.
On to `Cn1c(=O)c2c(nc3n2CCN3CCN2CCN(c3ccc(F)cc3)CC2)n(C)c1=O` [Compound 7], for which the LD50 in the data set “Acute toxicity in mice” (setting [8]) is over 300 mg/kg; in “Acute toxicity in mice” (setting [9]), over 300 mg/kg; in the data set “Acute toxicity in rats” it was over 100 mg/kg.
For the molecule `Cn1c(=O)c2c(nc3n2CCN3CCN2CCN(c3cccc(Br)c3)CC2)n(C)c1=O` [Compound 8], the figures for the LD50 in the data set “Acute toxicity in mice” (setting [8]), in “Acute toxicity in mice” (setting [9]) and in “Acute toxicity in rats” were over 300 mg/kg, over 300 mg/kg and over 100 mg/kg, respectively.
For the molecule `Cn1c(=O)c2c(nc3n2CCN3CCN2CCN(c3cccc(I)c3)CC2)n(C)c1=O` [Compound 9], the LD50 was over 300 mg/kg in “Acute toxicity in mice” (setting [8]), over 300 mg/kg in “Acute toxicity in mice” (setting [9]) and over 100 mg/kg in “Acute toxicity in rats”.
Consider `Cn1c(=O)c2c(nc3n2CCN3CCN2CCN(c3ccccc3Cl)CC2)n(C)c1=O` [Compound 10], for which the LD50 in “Acute toxicity in mice” (setting [8]) was over 300 mg/kg; in the data set “Acute toxicity in mice” (setting [9]), over 300 mg/kg; in “Acute toxicity in rats”, over 100 mg/kg.
Consider `Cn1c(=O)c2c(nc3n2CCN3CCN2CCN(c3ccc(Cl)cc3)CC2)n(C)c1=O` [Compound 12], for which, in data set [5], the “anti-inflammatory activity (in words)” value is given as “the more active, the activities being substantially equivalent to those of phenyl butazone”. Moreover, the “anti-tussive activity (in words)” value in data set [6] is on record as “most active compound investigated”. For the same molecule, the ED50 in data set [7] was determined as 1.5 mg/kg. Besides, the LD50 in “Acute toxicity in mice” (setting [8]) was 120 mg/kg; in the data set “Acute toxicity in mice” (setting [9]) it was over 300 mg/kg; in the data set “Acute toxicity in rats”, over 100 mg/kg.
As to `Cn1c(=O)c2c(nc3n2CCN3CCN2CCN(c3cccc(Cl)c3Cl)CC2)n(C)c1=O` [Compound 13], the LD50 is over 300 mg/kg in the data set “Acute toxicity in mice” (setting [8]), over 300 mg/kg in the data set “Acute toxicity in mice” (setting [9]) and over 100 mg/kg in “Acute toxicity in rats”.
Turning to `Cn1c(=O)c2c(nc3n2CCN3CCN2CCN(c3ccc(Cl)c(Cl)c3)CC2)n(C)c1=O` [Compound 14], the 50% lethal dose (LD50) was over 300 mg/kg in the data set “Acute toxicity in mice” (setting [8]), over 300 mg/kg in the data set “Acute toxicity in mice” (setting [9]) and over 100 mg/kg in “Acute toxicity in rats”.
Take `Cn1c(=O)c2c(nc3n2CCN3CCN2CCN(c3cc(Cl)cc(Cl)c3)CC2)n(C)c1=O` [Compound 15]: the LD50 in “Acute toxicity in mice” (setting [8]) was over 300 mg/kg; in “Acute toxicity in mice” (setting [9]), over 300 mg/kg; in “Acute toxicity in rats”, over 100 mg/kg.
As for `CC(CN1CCn2c1nc1c2c(=O)n(C)c(=O)n1C)N1CCN(c2cccc(Cl)c2)CC1` (centres unmarked) [Compound 16], the LD50 was over 300 mg/kg in “Acute toxicity in mice” (setting [8]), over 300 mg/kg in “Acute toxicity in mice” (setting [9]) and over 100 mg/kg in the data set “Acute toxicity in rats”.
Turning to `Cn1c(=O)c2c(nc3n2CCN3CCCN2CCN(c3cccc(Cl)c3)CC2)n(C)c1=O` [Compound 17], the LD50 in “Acute toxicity in mice” (setting [8]) is over 300 mg/kg; in the data set “Acute toxicity in mice” (setting [9]) it was over 300 mg/kg; in “Acute toxicity in rats”, over 100 mg/kg.
`CC(CN1CCCn2c1nc1c2c(=O)n(C)c(=O)n1C)N1CCN(c2cccc(Cl)c2)CC1` (centres unmarked) [Compound 19]: the LD50 in the data set “Acute toxicity in mice” (setting [8]) is over 300 mg/kg; in the data set “Acute toxicity in mice” (setting [9]), over 300 mg/kg; in the data set “Acute toxicity in rats”, over 100 mg/kg.
Consider `Cn1c(=O)c2c(nc3n2CCCN3CCCN2CCN(c3cccc(Cl)c3)CC2)n(C)c1=O` [Compound 20], for which, in [5], the “anti-inflammatory activity (in words)” value was “the more active, the activities being substantially equivalent to those of phenyl butazone”. Besides, the LD50 is over 300 mg/kg in the data set “Acute toxicity in mice” (setting [8]), over 300 mg/kg in the data set “Acute toxicity in mice” (setting [9]) and over 100 mg/kg in “Acute toxicity in rats”.
As to `CC1CN(CCN2CCn3c2nc2c3c(=O)n(C)c(=O)n2C)CCN1c1cccc(Cl)c1` (centres unmarked) [Compound 21], the LD50 in “Acute toxicity in mice” (setting [8]) is over 300 mg/kg; in the data set “Acute toxicity in mice” (setting [9]), over 300 mg/kg; in the data set “Acute toxicity in rats”, over 100 mg/kg.
For `CC1CN(CCN2CCn3c2nc2c3c(=O)n(C)c(=O)n2C)CCN1c1ccc(Cl)cc1` (centres unmarked) [Compound 22], the figures for the LD50 in “Acute toxicity in mice” (setting [8]), in the data set “Acute toxicity in mice” (setting [9]) and in the data set “Acute toxicity in rats” were over 300 mg/kg, over 300 mg/kg and over 100 mg/kg, respectively.
As for `CCC1CN(CCN2CCn3c2nc2c3c(=O)n(C)c(=O)n2C)CCN1c1cccc(Cl)c1` (centres unmarked) [Compound 24], the median lethal dose (LD50) in “Acute toxicity in mice” (setting [8]) is 300 mg/kg; in the data set “Acute toxicity in mice” (setting [9]) it was over 300 mg/kg; in “Acute toxicity in rats”, over 100 mg/kg.
In the same order, the values of `Cn1c(=O)c2c(nc3n2CCN3CCN2CCN(c3cccc(Cl)c3)C(COc3ccccc3)C2)n(C)c1=O` (centres unmarked) [Compound 25] are over 300 mg/kg, over 300 mg/kg and over 100 mg/kg.
Turning to `Cn1c(=O)c2c(nc3n2CCCCN3CCN2CCN(c3cccc(Cl)c3)CC2)n(C)c1=O` [Compound 26], the LD50 is over 300 mg/kg in the data set “Acute toxicity in mice” (setting [8]), over 300 mg/kg in “Acute toxicity in mice” (setting [9]) and over 100 mg/kg in the data set “Acute toxicity in rats”.
Turning to `Cn1c(=O)c2c(nc3n2CCCCN3CCCN2CCN(c3cccc(Cl)c3)CC2)n(C)c1=O` [Compound 27], the LD50 in “Acute toxicity in mice” (setting [8]) is over 300 mg/kg; in “Acute toxicity in mice” (setting [9]), over 300 mg/kg; in “Acute toxicity in rats”, over 100 mg/kg.
With `Cn1c(=O)c2c(nc3n2CCCN3CCCN2CCN(c3ccc(Cl)cc3)CC2)n(C)c1=O` [Compound 28], the figures for the median lethal dose (LD50) in “Acute toxicity in mice” (setting [8]), in the data set “Acute toxicity in mice” (setting [9]) and in the data set “Acute toxicity in rats” were over 300 mg/kg, over 300 mg/kg and over 100 mg/kg, respectively.
For `Cn1c(=O)c2c(nc3n2CCN3CCCCCCN2CCN(c3cccc(Cl)c3)CC2)n(C)c1=O` [Compound 29], the LD50 in the data set “Acute toxicity in mice” (setting [8]) was over 300 mg/kg; in the data set “Acute toxicity in mice” (setting [9]), over 300 mg/kg; in “Acute toxicity in rats”, over 100 mg/kg.
In the case of `Cn1c(=O)c2c(nc3n2CCCN3CCCCCCN2CCN(c3cccc(Cl)c3)CC2)n(C)c1=O` [Compound 30], the LD50 was over 300 mg/kg in “Acute toxicity in mice” (setting [8]), over 300 mg/kg in “Acute toxicity in mice” (setting [9]) and over 100 mg/kg in the data set “Acute toxicity in rats”.
As for `Cn1c(=O)c2c(nc3n2CCN3CCN2CCN(c3cccc(Cl)c3)CC2)n(C)c1=O` [Compound 31], the “LD50, oral route, mice” value in the data set with mice (oral route) is reported as 150 mg/kg. For the same molecule, the “LD50, s.c. route, mice” value in the data set on mice (s.c. route) is on record as over 300 mg/kg. The “LD50, oral route, rats” value with rats is reported as over 100 mg/kg.
